From patent publication US20260138959A1, “QUINAZOLINE DERIVATIVE COMPOUND AND USE THEREOF” (VORONOI INC., priority 2021, published 2026)

Experiments:
human PDGFR-α(wt) = target: T1, human PDGFR-α(wt) (Homo sapiens, UniProt P16234); test: Enzyme inhibitory activity, ADP-Glo kinase assay, PDGFR-α(wt); assay type: biochemical; settings: read-out: PDGFR-α (IC50 class)
T1 construct: purchased Signalchem P12-18G
Procedure, shortened: (§1)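 Purified human kinases incubated with ATP and substrate 1–2 h at 25 °C in 40 mM Tris-HCl pH 7.4, 20 mM MgCl2, BSA, DTT, compound over 12 concentrations (10–0.00005645 μM final). ADP formed quantified by ADP-Glo luminescence; IC50 from inhibition versus DMSO control, reported in bins A–D.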

human PDGFR-β(wt) = target: T2, human PDGFR-β(wt) (Homo sapiens, UniProt P09619); test: Enzyme inhibitory activity, ADP-Glo kinase assay, PDGFR-β(wt); assay type: biochemical; settings: read-out: PDGFR-β (IC50 class)
T2 construct: purchased Signalchem P13-11G
Procedure, shortened: as §1

human c-KIT(wt) = target: T3, human c-KIT(wt) (Homo sapiens, UniProt P10721); test: Enzyme inhibitory activity, ADP-Glo kinase assay, c-KIT(wt); assay type: biochemical; settings: read-out: c-KIT (WT) (IC50 class)
T3 construct: purchased Signalchem K06-11BG
Description: (§2) In order to evaluate the inhibitory activity of the compounds synthesized according to the above examples on PDGFR-α(wt), PDGFR-β(wt), c-KIT(wt), and c-KIT(D816V) kinases, the following method was performed. The compounds of examples were reacted with purified human PDGFR-α(wt) (Signalchem #P12-18G) enzyme, human PDGFR-β(wt) (Signalchem #P13-11G) enzyme, human c-KIT(wt) (Signalchem #K06-11BG) enzyme, human c-KIT(D816V) (Signalchem #C06-12LG) enzyme, and the enzyme inhibitory abilities were evaluated by the following method.
(§3) The reaction buffer was used as a composition of 40 mM Tris-HCl pH7.4, 20 mM MgCl2, 0.5 mg/ml BSA, 50 μM DTT, and the reactions of all the tests were carried out on the reaction buffer. The compound was diluted in 12 steps using a serial dilution method from a 10 mM DMSO stock, and the enzyme activity was measured at a final compound concentration of 10˜0.00005645 μM. During the test, the enzyme activity was confirmed using in vitro ADP-Glo™ kinase assay (Promega) after reacting with the proper concentration of human PDGFR-α(wt) enzyme, human PDGFR-β(wt), human c-KIT(wt) enzyme, and human c-KIT(D816V) enzyme with purified ATP and enzyme substrate at 25° C. for 1˜2 hours. At a ratio of 2:2:1, an enzyme-active reaction solution, an ADP-Glo reaction solution, and an enzyme-active detection solution were reacted to measure the inhibition of the enzyme's activity with luminoscence. Based on the […] of the enzyme activity of the solvent control that was not treated with the compound, the degree of enzyme activity inhibition was calculated according to the treatment concentration of each compound, and the concentration of each compound that inhibits 50% of enzyme activity was determined as IC50 (nM) value and the value was obtained by using GraphPad Prism 8.3.0 (GraphPad software Inc., San Diego) software. (A: IC50≤50 nM; B: 50 nM<IC50≤100 nM; C: 100 nM<IC50≤500 nM; D: IC50>500 nM).

Ba/F3-TEL-PDGFRα(WT) = test: Proliferation inhibitory activity on Ba/F3 cell (CellTiter-Glo, 72 hours), PDGFR-α; assay type: cell-based; settings: Mus musculus, BaF3, read-out: Ba/F3 (nM) Tel-PDGFRα (GI50 class)
Procedure, shortened: (§4)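 Viability was read by CellTiter-Glo after 72 h compound exposure at 37 °C, and GI50 values (nM) were derived from percent of vehicle-treated growth. Ba/F3 cells transformed with TEL-PDGFRα/β or mutant c-KIT were plated at 3×10^3 per well. Final compound range was 0.00005-10 μM in 12 threefold steps.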

Ba/F3-TEL-PDGFβ(WT) = test: Proliferation inhibitory activity on Ba/F3 cell (CellTiter-Glo, 72 hours), PDGFR-β; assay type: cell-based; settings: Mus musculus, BaF3, read-out: Ba/F3 (nM) Tel-PDGFRβ (GI50 class)
Procedure, shortened: as §4

Ba/F3-c-KIT(D816V) = test: Proliferation inhibitory activity on Ba/F3 cell (CellTiter-Glo, 72 hours), c-KIT(D816V); assay type: cell-based; settings: Mus musculus, BaF3, read-out: Ba/F3 (nM) c-KIT (D816V) (GI50 class)
Procedure, shortened: as §4

c-KIT V560G/D816V = test: Proliferation inhibitory activity on Ba/F3 cell (CellTiter-Glo, 72 hours), c-KIT V560G/D816V; assay type: cell-based; settings: Mus musculus, BaF3, c-KIT V560G/D816V cells, read-out: Cell (nM) c-KIT V560G/D816V (GI50 class)
Procedure, shortened: as §4

c-KIT D814Y = test: Proliferation inhibitory activity on Ba/F3 cell (CellTiter-Glo, 72 hours), c-KIT D814Y; assay type: cell-based; settings: Mus musculus, BaF3, c-KIT D814Y cells, read-out: Cell (nM) c-KIT D814Y (GI50 class)
Description: Ba/F3-TEL-PDGFRα(WT), Ba/F3-TEL-PDGFβ(WT), Ba/F3-c-KIT(D816V) (Kyinno, #KC-0138), c-KIT V560G/D816V, c-KIT D814Y were seeded at 3×10^3/100 μl/well in a clear bottom white 96-well plate. A culture solution containing compounds of 12 concentrations (0.00001-2 mM) serially diluted in 3 folds and the DMSO control group was added at 0.5 μl/well each to a final concentration of 0.00005-10 μM, and then incubated in a CO2 incubator at 37° C. for 72 hours. After 72 hours, the plate treated with the compound was taken out, CellTiter-Glo® Assay (Promega) solution was treated with 100 μl/well, followed by mixing well. After mixing well for about 10 minutes at room temperature, […] was measured using a microplate reader. The data were presented as percentages in proportion to treated cells based on the vehicle, GI50 (nM) values were calculated using GraphPad Prism 8.3.0 (GraphPad software Inc., San Diego).
The inhibitory activities of Ba/F3 expressing PDGFR-α, PDGFR-β, c-KIT(D816V), c-KIT V560G/D816V, and c-KIT D814Y measured as described above were measured and shown in Table 7 below (A: GI50≤200 nM; B: 200 nM<GI50≤500 nM; C: GI50>500 nM).

various kinases = test: Inhibitory activity against various kinases, DiscoverX scanMAX Kinase panel, % control at 1 μM; assay type: binding
Description: The activities of the compounds according to the present disclosure on various enzymes were evaluated. Specifically, it was commissioned DiscoverX to measure enzyme selectivity for the compounds of Examples 3, 9, and 83 above, and the experiment was conducted using a panel for scanMAX™ Kinase analysis. Herein, a solution prepared by dissolving in DMSO at a concentration of 1 μM was used as the drug treated with the enzyme, and the control percentage (% control) was determined by the method of Equation 1 below, and the results are shown in Table 8 below.
Herein, when the calculated percentage value for each enzyme was less than 35%, it was determined to have inhibitory activity for the enzyme. Accordingly, among the series of enzymes tested, the enzymes showing the inhibitory activities of the compounds of the present disclosure are summarized and shown in Table 8 below along with the control percentages thereof. (©): less than 10%; ◯: 10% or more to less than 35%).

c-KIT D816V [1] = target: T4, c-KIT D816V (Homo sapiens, UniProt P10721, D816V); test: Enzyme inhibitory activity, ADP-Glo kinase assay, c-KIT(D816V); assay type: biochemical; parameters: purchased Signalchem C06-12LG; settings: read-out: c-KIT (D816V) (IC50 class)
Description: as §2, §3

c-KIT D816V [2] = target: T4, c-KIT D816V; settings: background art; cited from earlier work

T4 sequence (P10721 26-976 D816V): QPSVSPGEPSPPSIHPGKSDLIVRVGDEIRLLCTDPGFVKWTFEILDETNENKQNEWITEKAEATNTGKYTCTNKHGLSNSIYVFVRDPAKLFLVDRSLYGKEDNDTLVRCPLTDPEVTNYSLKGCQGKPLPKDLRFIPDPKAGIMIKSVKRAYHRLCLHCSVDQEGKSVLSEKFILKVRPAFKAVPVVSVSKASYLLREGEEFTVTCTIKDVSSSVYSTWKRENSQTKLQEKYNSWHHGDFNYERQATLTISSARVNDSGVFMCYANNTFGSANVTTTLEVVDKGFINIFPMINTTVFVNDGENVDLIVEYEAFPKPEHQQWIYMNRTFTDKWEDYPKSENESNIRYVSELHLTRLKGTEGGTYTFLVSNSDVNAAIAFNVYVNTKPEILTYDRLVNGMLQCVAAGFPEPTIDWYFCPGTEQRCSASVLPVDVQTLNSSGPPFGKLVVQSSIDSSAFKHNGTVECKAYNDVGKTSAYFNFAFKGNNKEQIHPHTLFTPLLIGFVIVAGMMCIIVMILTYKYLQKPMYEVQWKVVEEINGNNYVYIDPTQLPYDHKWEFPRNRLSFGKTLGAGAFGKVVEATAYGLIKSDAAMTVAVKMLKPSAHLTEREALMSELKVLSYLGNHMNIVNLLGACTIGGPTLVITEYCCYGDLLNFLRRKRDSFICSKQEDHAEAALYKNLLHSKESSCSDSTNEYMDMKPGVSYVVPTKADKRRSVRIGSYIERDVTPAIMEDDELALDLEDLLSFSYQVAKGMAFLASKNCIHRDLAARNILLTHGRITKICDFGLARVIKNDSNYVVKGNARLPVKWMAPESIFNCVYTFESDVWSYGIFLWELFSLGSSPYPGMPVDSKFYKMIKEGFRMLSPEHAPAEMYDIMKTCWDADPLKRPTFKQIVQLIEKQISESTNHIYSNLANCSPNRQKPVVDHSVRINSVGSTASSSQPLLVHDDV
T3 sequence (P10721 26-976): as the sequence (P10721 26-976 D816V) above, with V791D counted along it
T1 sequence (P16234 24-1089): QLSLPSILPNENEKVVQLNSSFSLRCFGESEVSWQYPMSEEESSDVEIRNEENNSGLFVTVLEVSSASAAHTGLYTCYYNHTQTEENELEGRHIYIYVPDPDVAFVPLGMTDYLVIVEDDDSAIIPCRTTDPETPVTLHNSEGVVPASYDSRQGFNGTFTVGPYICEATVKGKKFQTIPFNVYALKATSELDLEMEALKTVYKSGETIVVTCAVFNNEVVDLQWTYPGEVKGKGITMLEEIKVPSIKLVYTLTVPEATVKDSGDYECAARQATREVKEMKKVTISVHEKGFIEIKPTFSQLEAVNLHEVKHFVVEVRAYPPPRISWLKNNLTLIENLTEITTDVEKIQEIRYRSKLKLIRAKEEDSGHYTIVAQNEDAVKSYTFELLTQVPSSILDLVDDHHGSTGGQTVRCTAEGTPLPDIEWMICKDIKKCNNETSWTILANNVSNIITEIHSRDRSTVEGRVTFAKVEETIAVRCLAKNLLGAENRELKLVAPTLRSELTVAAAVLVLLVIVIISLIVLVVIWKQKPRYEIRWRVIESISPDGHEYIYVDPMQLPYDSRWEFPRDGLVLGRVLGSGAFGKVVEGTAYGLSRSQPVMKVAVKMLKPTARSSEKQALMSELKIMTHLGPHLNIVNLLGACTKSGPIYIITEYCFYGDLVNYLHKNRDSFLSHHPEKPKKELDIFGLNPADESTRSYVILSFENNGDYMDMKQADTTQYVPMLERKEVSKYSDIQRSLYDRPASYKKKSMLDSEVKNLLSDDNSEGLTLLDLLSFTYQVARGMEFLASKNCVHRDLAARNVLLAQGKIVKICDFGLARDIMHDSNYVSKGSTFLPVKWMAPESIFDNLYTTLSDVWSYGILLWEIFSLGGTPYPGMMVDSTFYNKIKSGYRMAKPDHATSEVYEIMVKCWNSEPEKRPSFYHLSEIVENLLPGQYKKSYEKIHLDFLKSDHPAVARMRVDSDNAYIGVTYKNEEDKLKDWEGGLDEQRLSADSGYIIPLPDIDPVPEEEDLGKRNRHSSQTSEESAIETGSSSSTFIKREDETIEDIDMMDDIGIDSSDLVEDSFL
T2 sequence (P09619 33-1106): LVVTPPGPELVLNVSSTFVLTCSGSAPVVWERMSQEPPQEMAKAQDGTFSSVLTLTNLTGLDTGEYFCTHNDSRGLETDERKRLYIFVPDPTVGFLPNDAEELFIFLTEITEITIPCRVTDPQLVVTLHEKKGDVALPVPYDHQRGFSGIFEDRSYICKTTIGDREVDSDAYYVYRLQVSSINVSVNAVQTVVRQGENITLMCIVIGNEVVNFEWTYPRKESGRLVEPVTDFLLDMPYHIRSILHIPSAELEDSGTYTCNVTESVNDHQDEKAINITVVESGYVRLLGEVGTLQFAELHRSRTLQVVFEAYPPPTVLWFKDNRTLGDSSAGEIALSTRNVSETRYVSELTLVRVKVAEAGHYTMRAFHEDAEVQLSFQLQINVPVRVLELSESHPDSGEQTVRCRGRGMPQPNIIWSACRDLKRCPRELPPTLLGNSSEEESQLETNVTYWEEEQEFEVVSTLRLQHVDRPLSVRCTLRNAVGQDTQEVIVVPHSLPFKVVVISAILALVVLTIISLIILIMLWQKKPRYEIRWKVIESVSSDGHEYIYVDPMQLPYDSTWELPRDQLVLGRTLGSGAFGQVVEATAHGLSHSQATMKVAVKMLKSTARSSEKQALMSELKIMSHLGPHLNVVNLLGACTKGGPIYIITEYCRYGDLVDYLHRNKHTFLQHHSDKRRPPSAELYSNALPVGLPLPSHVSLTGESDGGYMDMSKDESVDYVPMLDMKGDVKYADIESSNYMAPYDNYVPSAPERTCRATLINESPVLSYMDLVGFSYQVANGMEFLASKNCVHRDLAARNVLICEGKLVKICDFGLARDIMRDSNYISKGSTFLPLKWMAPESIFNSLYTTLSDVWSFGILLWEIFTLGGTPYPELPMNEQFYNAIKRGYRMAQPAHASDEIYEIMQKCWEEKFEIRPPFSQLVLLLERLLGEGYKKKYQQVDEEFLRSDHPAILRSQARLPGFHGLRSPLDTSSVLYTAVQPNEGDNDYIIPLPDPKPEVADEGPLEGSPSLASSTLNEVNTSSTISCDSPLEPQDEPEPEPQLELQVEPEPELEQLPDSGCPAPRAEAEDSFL

IC50 (human PDGFR-α(wt)) [nM] | IC50 (human PDGFR-β(wt)) [nM] | IC50 (human c-KIT(wt)) [nM] | GI50 (Ba/F3-TEL-PDGFRα(WT)) [nM] | GI50 (Ba/F3-TEL-PDGFβ(WT)) [nM] | GI50 (Ba/F3-c-KIT(D816V)) [nM] | GI50 (c-KIT V560G/D816V) [nM] | GI50 (c-KIT D814Y) [nM] | control percentage (% control), KIT (various kinases; KIT) | control percentage (% control), KIT (A829P) (various kinases; KIT (A829P)) | control percentage (% control), KIT (D816H) (various kinases; KIT (D816H)) | control percentage (% control), KIT (D816V) (various kinases; KIT (D816V)) | control percentage (% control), KIT (L576P) (various kinases; KIT (L576P)) | control percentage (% control), KIT (V559D) (various kinases; KIT (V559D)) | IC50 (c-KIT D816V [1]) [nM] | SMILES | effect of inhibiting c-KIT D816V (c-KIT D816V [2])
≤ 50 | ≤ 50 | ≤ 50 | ≤ 200 | ≤ 200 | ≤ 200 | ≤ 200 | ≤ 200 | ⊚ | ⊚ | ⊚ | ⊚ | ◯ (◯: 10% or more to less than 35%) | ◯ (◯: 10% or more to less than 35%) | ≤ 50 | COc1cc2c(-c3ccc(NC(=O)Cc4ccc(C(F)(F)F)cc4)cc3)ncnc2cc1OCCCN1CCN(C)CC1 [Example 9, N-(4-(6-methoxy-7-(3-(4-methylpiperazin-1-yl)propoxy)quinazolin-4-yl)phenyl)-2-(4-(trifluoromethyl)phenyl)acetamide] | –
– | – | – | – | – | – | – | – | – | – | – | – | – | – | – | Cc1ccc(NC(=O)c2ccc(CN3CCN(C)CC3)cc2)cc1Nc1nccc(-c2cccnc2)n1 [imatinib] | no effect
